Reference: patent US8652522B2, “Pharmaceutical composition of an iontophoresis” (Teikoku Seiyaku Co., Ltd., priority 2009, dated 2014)
Like-named read-outs stand apart in the source and are kept apart here.

Columns and labels:
[1] = blood plasma
Protocol: (§1) Moreover, the condition of the transdermally administration in association with the treatment of applying current is as follows.
(§2) This was funneled into a patch comprising an electrode and an adhesion layer, and cooled down at −80° C. to obtain a desired drug product.
Two NZ family male rabbits to be devoted to the test was bought from […] LABES Co., Ltd., (Charles River Japan, Inc.). […] The observation of the animal during the preliminary breeding and the test, as to a hair coat, a skin and a excretory substance was carried out every day.
The administration route: the transdermally administration in association with the treatment of applying current
The radioactivity density assay in the blood plasma was carried out as follows.
A sample for assay was treated by adding the solubilizing agent, and the measurement of the sample was carried out by using the liquid scintillation counter (LSC-1000, ALOKA). The limit of determinate quantity was two folds of the background, and the lesser value of the limit was determined as ND. The radioactivity density assay in the blood plasma was calculated from the measured value.
The radioactivity density is used as indication pointer, the calibrated concentration of the chemical drug converted with unaltered substance was calculated by the following formula. The calibrated concentration of the chemical drug (μg eq./mL)=The radioactivity density in the sample (dpm/mL)/{the amount of the administration radioactivity (dpm)/the amount of the administration chemical drug (μg)}

[2] = Protocol: as §1, §2
After that, an embedded freezing block was directed to the cutter of the microtome stage for mounting (CRYOMACROCUT, Leica), and a femoral region thereof was directed to the front, and a neck region was directed to the backside, and was fixed with being in close contact with the backside of the leg to the stage for mounting. When the stage for mounting of microtome was slid, the cutter was contacted perpendicular with the narrow side of the rectangular, the upper surface of this was chipped off as a sliced segment, the sliced segment was in close contact to the adhesive tape, and removed. This operation was repeated a couple dozens times, it was cleaved from the front portion of the knee to the backside portion, a segment of the administration and current-carrying part was (1) to (7) (from the front to the backside) in order of precedence.

CC1CC2C3CCC4=CC(=O)C=CC4(C)C3(F)C(O)CC2(C)C1(O)C(=O)COP(=O)([O-])[O-].[Na+].[Na+] (centres unmarked) [[^3H] Betamethasone-21-phosphate disodium salt]
average of drug conversion ([1]; 30 min. administration individual, 10 minutes): 0.01 μg eq./mL | average of drug conversion ([1]; 30 min. administration individual, 20 minutes): 0.03 μg eq./mL | average of drug conversion ([1]; 30 min. administration individual, 30 minutes): 0.09 μg eq./mL | average of drug conversion ([1]; 120 min. administration individual, 10 minutes): 0.04 μg eq./mL | average of drug conversion ([1]; 120 min. administration individual, 20 minutes): 0.09 μg eq./mL | average of drug conversion ([1]; 120 min. administration individual, 30 minutes): 0.23 μg eq./mL | average of drug conversion ([1]; 120 min. administration individual, 60 minutes): 0.66 μg eq./mL | average of drug conversion ([1]; 120 min. administration individual, 90 minutes): 0.91 μg eq./mL | average of drug conversion ([1]; 120 min. administration individual, 120 minutes): 1.17 μg eq./mL | blackened image according to 3H, cingulum of the perimysial tissue (perimysium) ([2]; existing up to the reticular dermis located in the inner side of the epidermal tissue): high density | blackened image according to 3H at a fibrous encapsulation and a synovium membrane ([2]; synovial joint, administration time 120 minutes and 30 minutes): very slight amount
